From BindingDB's records for doi:10.1021/jm0311442 (University of Newcastle, 2004)

Biological target: Cyclin-dependent kinase 1/G2/mitotic-specific cyclin-B (Marthasterias glacialis, UniProt P15206+Q9DGD3)
Assay: Kinase Inhibition Assay

Sequence of Cyclin-dependent kinase 1/G2/mitotic-specific cyclin-B (Q9DGD3 whole entry): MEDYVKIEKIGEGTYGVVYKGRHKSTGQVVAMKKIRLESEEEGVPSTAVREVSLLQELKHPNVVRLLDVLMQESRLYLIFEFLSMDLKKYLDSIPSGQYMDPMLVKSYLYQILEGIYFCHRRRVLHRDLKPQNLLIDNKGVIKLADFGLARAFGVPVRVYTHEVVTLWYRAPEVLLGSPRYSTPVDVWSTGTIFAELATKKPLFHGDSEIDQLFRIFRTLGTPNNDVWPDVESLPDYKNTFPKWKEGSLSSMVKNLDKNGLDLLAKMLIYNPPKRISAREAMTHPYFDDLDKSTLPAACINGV
Sequence of Cyclin-dependent kinase 1/G2/mitotic-specific cyclin-B (P15206 whole entry): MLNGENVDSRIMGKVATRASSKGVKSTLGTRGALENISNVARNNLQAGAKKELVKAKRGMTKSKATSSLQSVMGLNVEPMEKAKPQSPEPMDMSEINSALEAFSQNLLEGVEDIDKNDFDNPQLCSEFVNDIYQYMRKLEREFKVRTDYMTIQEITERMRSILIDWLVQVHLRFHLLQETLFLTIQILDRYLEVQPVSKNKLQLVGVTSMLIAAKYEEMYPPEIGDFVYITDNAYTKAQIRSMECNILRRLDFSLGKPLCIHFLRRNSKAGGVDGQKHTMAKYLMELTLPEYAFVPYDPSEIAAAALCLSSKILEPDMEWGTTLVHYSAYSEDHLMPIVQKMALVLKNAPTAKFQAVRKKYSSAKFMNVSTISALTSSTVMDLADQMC

IC50: 80 nM
SMILES: CS(=O)(=O)c1ccc(Nc2nc(OCC3CCCCC3)c3[nH]cnc3n2)cc1 [6-(cyclohexylmethoxy)-N-(4-methanesulfonylphenyl)-9H-purin-2-amine]
